≈ marks a conversion by molar mass, not a printed value.
Key:
[1] = Cytotoxicity against mouse HT-22 cells assessed as cell viability incubated for 24 hrs by CCK-8 method; assay type: toxicity, cell-based
[2] = Cytotoxicity against mouse BV-2 cells assessed as cell viability incubated for 24 hrs by CCK-8 method; assay type: toxicity, cell-based
HT-22 [3] = assay: Neuroprotective activity against OGD/R induced cell damage in mouse HT-22 cells assessed as cell viability at 10 uM measured after 24 hrs by MTT assay (reference value: 69.01 +/-2.90%); assay type: functional; conditions: read-out: Activity
[4] = Antioxidant activity assessed as trolox equivalent of ORAC radical scavenging activity at 0.125 to 2 uM by AAPH based automatic microplate reader analysis; assay type: functional; conditions: dose 0.125-2 µM
HT-22 [5] = assay: Anti-apoptotic activity in OGD/R mouse HT-22 cells assessed as early apoptotic cells at 10 uM by annexin V-FITC and PI staining based flow cytometry analysis (reference value: 9.51%); assay type: functional
HT-22 [6] = assay: Antioxidant activity against OGD/R induced damage in mouse HT-22 cells assessed as decrease in proportion of mitochondrial depolarized cells at 10 uM by JC-1 fluorescence based flow cytometry analysis (reference value: 91.7%); assay type: functional; set-up: scale not given: the % may be the effect or the level left
HT-22 [7] = assay: Anti-apoptotic activity in OGD/R mouse HT-22 cells assessed as necrotic cells at 10 uM by annexin V-FITC and PI staining based flow cytometry analysis (reference value: 0.14%); assay type: functional
[8] = Aqueous solubility of the compound incubated for 72 hrs under shaking condition by HPLC analysis; assay type: physicochemical
HT-22 [9] = assay: Anti-apoptotic activity in OGD/R mouse HT-22 cells assessed as viable cells at 10 uM by annexin V-FITC and PI staining based flow cytometry analysis (reference value: 83.09%); assay type: functional; conditions: read-out: Activity
HT-22 [10] = assay: Anti-apoptotic activity in OGD/R mouse HT-22 cells assessed as late apoptotic cells at 10 uM by annexin V-FITC and PI staining based flow cytometry analysis (reference value: 7.26%); assay type: functional

For `COc1ccc2c(CCNC(=O)c3ccc(C)cc3O)c[nH]c2c1`, the IC50 at 24 h [1] was 102 µM, the IC50 at 24 h [2] was > 100 µM and the viability at 10 µM (HT-22 [3]) was 61.5%.

Work on `Cc1ccc(C(=O)NCCc2c[nH]c3ccc(Br)cc23)c(O)c1` yielded an IC50 at 24 h [1] of 76.1 µM, an IC50 at 24 h [2] of 88.6 µM and a viability at 10 µM (HT-22 [3]) of 67.8%.

Molecule `COc1cccc2c(CCNC(=O)c3ccc(C)cc3O)c[nH]c12` has an IC50 at 24 h [1] of 73.2 µM, an Activity [4] of 2 and an IC50 at 24 h [2] of 90.9 µM. For the same molecule, the viability at 10 µM (HT-22 [3]) was 91.5%.

In the case of `Cc1ccc(C(=O)NCCc2c[nH]c3cc(C)ccc23)c(O)c1`, the IC50 at 24 h [1] is reported as > 100 µM, the IC50 at 24 h [2] is reported as > 100 µM and the viability at 10 µM (HT-22 [3]) is reported as 60.2%.

In the case of `O=C(NCCc1c[nH]c2ccccc12)c1c(O)cccc1F`, the IC50 at 24 h [1] is reported as > 100 µM, the IC50 at 24 h [2] is reported as > 100 µM and the viability at 10 µM (HT-22 [3]) is reported as 87.7%.

For `COc1cccc2[nH]cc(CCNC(=O)c3ccc(C)cc3O)c12`, the IC50 at 24 h [1] was 78.4 µM, the IC50 at 24 h [2] was 96 µM and the viability at 10 µM (HT-22 [3]) was 74%.

Molecule `Cc1ccc(C(=O)NCCc2c[nH]c3cc(F)cc(F)c23)c(O)c1` has an IC50 at 24 h [1] of 61.9 µM, an IC50 at 24 h [2] of 32.7 µM and a viability at 10 µM (HT-22 [3]) of 89.2%.

Work on `Cc1ccc(O)c(C(=O)NCCc2c[nH]c3ccccc23)c1` yielded an IC50 at 24 h [1] of 51.1 µM, an IC50 at 24 h [2] of 50.2 µM and a viability at 10 µM (HT-22 [3]) of 76.5%.

For `Cc1ccc(C(=O)NCCc2c[nH]c3ccc(F)cc23)c(O)c1`, the IC50 at 24 h [1] was > 100 µM, the Activity [4] was 3.1 and the IC50 at 24 h [2] was > 100 µM. It also gave a viability at 10 µM (HT-22 [3]) of 83.9%.

In the case of `O=C(NCCc1c[nH]c2ccccc12)c1cc(Br)ccc1O`, the IC50 at 24 h [1] is reported as 64.7 µM, the IC50 at 24 h [2] is reported as 68.2 µM and the viability at 10 µM (HT-22 [3]) is reported as 73.4%.

For `Cc1ccc(C(=O)NCCc2c[nH]c3cccc(Br)c23)c(O)c1`, the IC50 at 24 h [1] was > 100 µM, the IC50 at 24 h [2] was > 100 µM and the viability at 10 µM (HT-22 [3]) was 73.1%.

In the case of `Cc1ccc(C(=O)NCCc2c[nH]c3cc(Br)ccc23)c(O)c1`, the IC50 at 24 h [1] is reported as 70.8 µM, the IC50 at 24 h [2] is reported as 46.6 µM and the viability at 10 µM (HT-22 [3]) is reported as 66.2%.

`COc1cc(C)cc2[nH]cc(CCNC(=O)c3ccc(C)cc3O)c12` gave an IC50 at 24 h [1] of 73 µM, an IC50 at 24 h [2] of 52.9 µM and a viability at 10 µM (HT-22 [3]) of 85.4%.

With `COc1ccc2[nH]cc(CCNC(=O)c3ccc(C)cc3O)c2c1` the IC50 at 24 h [1] was > 100 µM, the IC50 at 24 h [2] was > 100 µM and the viability at 10 µM (HT-22 [3]) was 74%.

For `Cc1ccc(C(=O)NCCc2c[nH]c3c(Br)cccc23)c(O)c1`, the IC50 at 24 h [1] was > 100 µM, the IC50 at 24 h [2] was 52.8 µM and the viability at 10 µM (HT-22 [3]) was 78.1%.

`O=C(NCCc1c[nH]c2ccccc12)c1cccc(Cl)c1O` gave an IC50 at 24 h [1] of 52 µM, an IC50 at 24 h [2] of 50.4 µM and a viability at 10 µM (HT-22 [3]) of 87.9%.

`Cc1ccc(C(=O)NCCc2c[nH]c3c(F)cccc23)c(O)c1` showed an IC50 at 24 h [1] of 86.2 µM, an IC50 at 24 h [2] of 43 µM and a viability at 10 µM (HT-22 [3]) of 92.5%.

For `Cc1ccc(C(=O)NCCc2c[nH]c3cc4c(cc23)OCO4)c(O)c1`, the IC50 at 24 h [1] was > 100 µM, the IC50 at 24 h [2] was 98.8 µM and the viability at 10 µM (HT-22 [3]) was 82.8%.

With `Cc1ccc(C(=O)NCCc2c[nH]c3c(C)cccc23)c(O)c1` the IC50 at 24 h [1] was > 100 µM, the IC50 at 24 h [2] was 39.1 µM and the viability at 10 µM (HT-22 [3]) was 79.5%.

In the case of `COc1cccc(C(=O)NCCc2c[nH]c3ccccc23)c1O`, the IC50 at 24 h [1] is reported as > 100 µM, the IC50 at 24 h [2] is reported as > 100 µM and the viability at 10 µM (HT-22 [3]) is reported as 87.8%.

Molecule `CC1=NN(c2ccccc2)C(=O)C1` [EDARAVONE] has an Activity (HT-22 [5]) of 1.78%, an Activity (HT-22 [6]) of 67.9% and an Activity (HT-22 [7]) of 0.72%. The Activity [4] was 2.8, the solubility thermodynamic at 72 h [8] was 1840 µg/mL (≈ 10.6 mM) and the viability at 10 µM (HT-22 [9]) was 92.1%. For the same molecule, the Activity (HT-22 [10]) was 5.39% and the viability at 10 µM (HT-22 [3]) was 80.9%.

With `Cc1ccc(C(=O)NCCc2c[nH]c3ccc(C)cc23)c(O)c1` the IC50 at 24 h [1] was > 100 µM, the Activity [4] was 3.1 and the IC50 at 24 h [2] was 79.3 µM. It also gave a viability at 10 µM (HT-22 [3]) of 89.5%.

In the case of `Cc1ccc(C(=O)NCCc2c[nH]c3cc(F)ccc23)c(O)c1`, the IC50 at 24 h [1] is reported as > 100 µM, the IC50 at 24 h [2] is reported as > 100 µM and the viability at 10 µM (HT-22 [3]) is reported as 77.7%.

For `Cc1cccc(C(=O)NCCc2c[nH]c3ccccc23)c1O`, the IC50 at 24 h [1] was 51.5 µM, the IC50 at 24 h [2] was 36.1 µM and the viability at 10 µM (HT-22 [3]) was 87.2%.

From ChEMBL document CHEMBL5614422, “Design, synthesis and biological evaluation of N-salicyloyl tryptamine derivatives as multifunctional neuroprotectants for the treatment of ischemic stroke” (Eur J Med Chem, 2024)
